Results taken from paper PMC7435819, “Towards the Inhibition of Protein–Protein Interactions (PPIs) in STAT3: Insights into a New Class of Benzothiadiazole Derivatives” (Molecules, 2020).
Where two headings read alike, the source gives them in different places.

Key:
STAT3 = molecular target: T1, STAT3 (Homo sapiens, UniProt P40763); assay: AlphaScreen-based competitive binding assay, STAT3 SH2 domain vs FITC-GpYLPQTV; details: for % of control, STAT3 AlphaScreen: WT
T1 construct: a truncated form of STAT3 (136-705) was constructed and chromatographically purified; made in house
Description: (§1) AlphaScreen is an in vitro competitive binding test used to identify compounds that are able to inhibit the binding of proteins containing an SH2 domain to their corresponding phosphopeptides (5-carboxyfluorescein (FITC)-GpYLPQTV for STAT3 and FITC-GpYDKPHVL for STAT1) (Table 2).
(§2) AlphaScreen is a bead-based non-radioactive assay system for the detection of biomolecular interactions in a microtiter plate format. The binding of biological partners brings donor and acceptor beads into close proximity and, as a result, a fluorescent signal between 520 and 620 nm was produced. The AlphaScreen-based assays were performed in a final reaction volume of 25 μL of the assay buffer containing 10 mM HEPES–NaOH (pH 7.4), 50 mM NaCl, 1 mM EDTA (pH 8.0), 0.1% NP-40, and 10 ng/μL bovine serum albumin (BSA) in a 96-well microtiter plate at 25 °C. The pTyr peptide probes used in this study were 5-carboxyfluorescein (FITC)-GpYLPQTV for STAT3 and (FITC)-GpYDKPHVL for STAT1. Plasmid construction and protein expression were performed as previously described; the experimental method is briefly summarized as follows. Considering that the expression of the full-length protein is troublesome, a truncated form of STAT3 (136-705) was constructed and chromatographically purified (AKTA FPLC system; GE Healthcare Bio-Sciences, Piscataway, NJ, USA). The soluble STAT3 fraction was loaded on a HisTrap™ column (GE Healthcare Bio-Sciences) and eluted with an imidazole gradient (50 mM Tris–HCl pH 7.4, 300 mM NaCl, 0.2 mM EDTA, 0.1% (w/v) NP-40, 5 mM β-mercaptoethanol, 10% (v/v) glycerol, and 10–300 mM imidazole). An SDS-PAGE stained with Coomassie Brilliant Blue (CBB) was performed to check the purity of the protein (see Figure S71). Subsequently, the protein was dialyzed (10 mM HEPES-NaOH pH 7.4, 50 mM NaCl, 10 mM β-mercaptoethanol, 0.1 mM EGTA, 0.02% (w/v) NP-40, 0.2 mM phenylmethylsulphonyl fluoride (PMSF), and 10% (v/v) glycerol).
(§3) Firstly, 75 nM of each SH2-containing protein were incubated with the test compound (at the following concentrations: 1, 3, 10, and 30 µM) for 15 min. Each protein sample was then incubated for 90 min with 50 nM of its corresponding FITC-pTyr peptide and simultaneously mixed with streptavidin-coated donor beads and anti-FITC acceptor beads before detection at 570 nm using EnVison Xcite (PerkinElmer, Waltham, MA, USA).

STAT1 = molecular target: T2, STAT1 (Homo sapiens, UniProt P42224); assay: AlphaScreen-based competitive binding assay, STAT1 vs FITC-GpYDKPHVL; details: read-out: STAT1 inhibition: IC50
T2 sequence (P42224 1-750): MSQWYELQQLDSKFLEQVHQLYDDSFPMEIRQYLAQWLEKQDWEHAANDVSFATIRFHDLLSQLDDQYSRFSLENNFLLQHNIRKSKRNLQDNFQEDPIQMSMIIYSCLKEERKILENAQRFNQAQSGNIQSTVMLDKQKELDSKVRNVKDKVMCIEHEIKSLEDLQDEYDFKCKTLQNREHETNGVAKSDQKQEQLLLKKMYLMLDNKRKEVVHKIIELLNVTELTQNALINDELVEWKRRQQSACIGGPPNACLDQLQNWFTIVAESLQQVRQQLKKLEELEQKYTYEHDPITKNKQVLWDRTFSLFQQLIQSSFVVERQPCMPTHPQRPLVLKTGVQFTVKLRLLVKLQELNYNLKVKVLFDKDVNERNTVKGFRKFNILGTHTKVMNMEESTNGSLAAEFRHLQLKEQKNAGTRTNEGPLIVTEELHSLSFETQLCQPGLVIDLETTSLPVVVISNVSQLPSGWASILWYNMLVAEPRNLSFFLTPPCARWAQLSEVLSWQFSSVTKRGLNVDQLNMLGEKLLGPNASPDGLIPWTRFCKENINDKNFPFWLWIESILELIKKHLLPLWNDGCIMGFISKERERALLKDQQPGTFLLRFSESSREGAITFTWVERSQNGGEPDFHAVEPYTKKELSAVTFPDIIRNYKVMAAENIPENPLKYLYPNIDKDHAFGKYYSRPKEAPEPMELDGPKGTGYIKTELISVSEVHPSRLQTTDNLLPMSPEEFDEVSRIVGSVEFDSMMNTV
Description: as §1
as §2, with “The soluble STAT3 fraction was loaded on a HisTrap™ column (GE Healthcare Bio-Sciences) and eluted with an imidazole gradient (50 mM Tris–HCl pH 7.4, 300 mM NaCl, 0.2 mM EDTA, 0.1% (w/v) NP-40, 5 mM β-mercaptoethanol, 10% (v/v) glycerol, and 10–300 mM imidazole). An SDS-PAGE stained with Coomassie Brilliant Blue (CBB) was performed to check the purity of the protein (see Figure S71). Subsequently, the protein was dialyzed (10 mM HEPES-NaOH pH 7.4, 50 mM NaCl, 10 mM β-mercaptoethanol, 0.1 mM EGTA, 0.02% (w/v) NP-40, 0.2 mM phenylmethylsulphonyl fluoride (PMSF), and 10% (v/v) glycerol).” left out

Grb2 = Grb2 (Homo sapiens, UniProt P62993); assay: AlphaScreen-based assay, Grb2 (other SH2 domain-containing protein); type: binding; details: 30 µM
Experimental: as §1, §3

STAT3 Cys468A = molecular target: T3, STAT3 Cys468A (Homo sapiens, UniProt P40763, C468A); assay: AlphaScreen-based assay, STAT3 single-cysteine mutant Cys468A; type: binding; details: for % of control, STAT3 AlphaScreen: Cys468A
T3 construct: a truncated form of STAT3 (136-705) was constructed and chromatographically purified; made in house
Experimental: (§4) Furthermore, to gain insight into the activity of compound 1, its interaction with the cysteine residues located in the vicinities of the SH2 domain (Figure 3) was investigated and evaluated by an AlphaScreen-based assay using different mutants (Table 3).
(§5) The same procedure was used to evaluate compound 1 activity versus STAT3 single-cysteine-residue mutants (Cys468A, Cys542A, Cys550A, Cys687A, and Cys712A). Briefly, 3 µL of compound 1 in DMSO (at 0.3, 1, 3, 10 and 30 µM concentration) were premixed with 1 µL of L-Cys in PBS and 16 µL of an AlphaScreen buffer. Then, the mixture was immediately (<5 min) mixed with the STAT3 mutant solution before adding the FITC-peptide.

STAT3 Cys542A = molecular target: T4, STAT3 Cys542A (Homo sapiens, UniProt P40763, C542A); assay: AlphaScreen-based assay, STAT3 single-cysteine mutant Cys542A; type: binding; details: for % of control, STAT3 AlphaScreen: Cys542A
T4 construct: a truncated form of STAT3 (136-705) was constructed and chromatographically purified; made in house
Experimental: as §4, §5

STAT3 Cys550A = molecular target: T5, STAT3 Cys550A (Homo sapiens, UniProt P40763, C550A); assay: AlphaScreen-based assay, STAT3 single-cysteine mutant Cys550A; type: binding; details: for % of control, STAT3 AlphaScreen: Cys550A
T5 construct: a truncated form of STAT3 (136-705) was constructed and chromatographically purified; made in house
Experimental: as §4, §5

STAT3 Cys687A = molecular target: T6, STAT3 Cys687A (Homo sapiens, UniProt P40763, C687A); assay: AlphaScreen-based assay, STAT3 single-cysteine mutant Cys687A; type: binding; details: for % of control, STAT3 AlphaScreen: Cys687A
T6 construct: a truncated form of STAT3 (136-705) was constructed and chromatographically purified; made in house
Experimental: as §4, §5

STAT3 Cys712A = molecular target: T7, STAT3 Cys712A (Homo sapiens, UniProt P40763, C712A); assay: AlphaScreen-based assay, STAT3 single-cysteine mutant Cys712A; type: binding; details: for % of control, STAT3 AlphaScreen: Cys712A
T7 construct: made in house
Experimental: as §4, §5

[1] = parameters: method as in doi:10.1039/P29840001851; details: cited from earlier work

T6 sequence (P40763 136-705 C687A): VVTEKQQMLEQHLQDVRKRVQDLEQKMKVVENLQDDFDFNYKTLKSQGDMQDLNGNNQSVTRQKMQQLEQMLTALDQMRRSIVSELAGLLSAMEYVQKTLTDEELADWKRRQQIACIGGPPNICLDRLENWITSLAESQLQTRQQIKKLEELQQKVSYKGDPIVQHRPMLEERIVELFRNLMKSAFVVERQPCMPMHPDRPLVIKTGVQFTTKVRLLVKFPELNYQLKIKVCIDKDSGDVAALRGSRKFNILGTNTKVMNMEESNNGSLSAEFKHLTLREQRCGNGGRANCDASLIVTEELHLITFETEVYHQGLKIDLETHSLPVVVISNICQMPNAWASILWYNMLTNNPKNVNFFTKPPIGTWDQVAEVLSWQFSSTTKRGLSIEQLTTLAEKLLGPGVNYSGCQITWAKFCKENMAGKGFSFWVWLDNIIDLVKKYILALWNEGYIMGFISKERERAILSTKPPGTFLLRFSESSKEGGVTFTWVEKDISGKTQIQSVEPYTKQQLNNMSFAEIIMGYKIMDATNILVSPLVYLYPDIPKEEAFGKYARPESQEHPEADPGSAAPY
T7 sequence (P40763 whole entry C712A): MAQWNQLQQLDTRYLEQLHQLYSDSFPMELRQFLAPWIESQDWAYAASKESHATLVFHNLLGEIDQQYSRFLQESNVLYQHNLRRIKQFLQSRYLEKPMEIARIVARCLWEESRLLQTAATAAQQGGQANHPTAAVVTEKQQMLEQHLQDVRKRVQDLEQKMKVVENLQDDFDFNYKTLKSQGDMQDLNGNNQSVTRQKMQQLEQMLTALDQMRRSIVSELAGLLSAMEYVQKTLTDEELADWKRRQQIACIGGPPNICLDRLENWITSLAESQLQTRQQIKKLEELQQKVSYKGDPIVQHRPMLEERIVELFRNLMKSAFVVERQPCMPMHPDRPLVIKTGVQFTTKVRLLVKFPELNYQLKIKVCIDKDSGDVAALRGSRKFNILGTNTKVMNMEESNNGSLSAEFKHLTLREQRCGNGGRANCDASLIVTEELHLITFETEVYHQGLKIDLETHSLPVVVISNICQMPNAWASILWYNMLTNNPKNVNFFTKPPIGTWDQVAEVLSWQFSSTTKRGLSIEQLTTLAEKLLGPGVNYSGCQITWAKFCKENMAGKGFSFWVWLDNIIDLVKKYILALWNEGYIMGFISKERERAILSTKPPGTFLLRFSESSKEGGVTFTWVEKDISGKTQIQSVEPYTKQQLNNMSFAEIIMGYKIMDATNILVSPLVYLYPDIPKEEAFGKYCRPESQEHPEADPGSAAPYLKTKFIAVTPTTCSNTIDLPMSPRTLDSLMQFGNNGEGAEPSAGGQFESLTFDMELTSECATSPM
T1 sequence (P40763 136-705): as the sequence (P40763 136-705 C687A) above, with A552C counted along it
T4 sequence (P40763 136-705 C542A): as the sequence (P40763 136-705 C687A) above, with C407A, A552C counted along it
T5 sequence (P40763 136-705 C550A): as the sequence (P40763 136-705 C687A) above, with C415A, A552C counted along it
T3 sequence (P40763 136-705 C468A): as the sequence (P40763 136-705 C687A) above, with C333A, A552C counted along it
Grb2, sequence (P62993 whole entry, species assumed, the tested form may be a part): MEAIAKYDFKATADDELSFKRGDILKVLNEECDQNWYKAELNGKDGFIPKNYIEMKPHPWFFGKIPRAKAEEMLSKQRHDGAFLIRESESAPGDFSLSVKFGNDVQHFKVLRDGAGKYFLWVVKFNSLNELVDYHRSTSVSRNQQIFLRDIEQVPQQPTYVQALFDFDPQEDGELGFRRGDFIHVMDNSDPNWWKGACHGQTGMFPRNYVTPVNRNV

## Cc1cc2c(cc1C)NS(=O)(=O)N2 [Compound 1, 5,6-Dimethyl-1H,3H-2,1,3-benzothiadiazole-2,2-dioxide]
STAT3; 30 µM, n.a.: not active, read-out: STAT3 % Inhibition (30 µM)
  inhibition at 30 µM: 96.5 ± 1.1%
STAT3; STAT3 wild-type (WT), read-out: STAT3 inhibition: IC50
  IC50: 15.8 µM
STAT3; Table 1, AlphaScreen-based assay at 30 µM, STAT3-SH2 domain, read-out: % Inhibition
  inhibition at 30 µM: 96.5%
STAT3; [1] 1 μM
  % of control, STAT3 AlphaScreen: 98.6 % of control
STAT3; [1] 3 μM
  % of control, STAT3 AlphaScreen: 94.1 % of control
STAT3; [1] 10 μM
  % of control, STAT3 AlphaScreen: 72.4 % of control
STAT3; [1] 30 μM
  % of control, STAT3 AlphaScreen: 18.4 % of control
STAT1
  IC50: > 50 µM
Grb2
  inhibition versus Grb2: 23%
STAT3 Cys468A; [1] 1 μM
  % of control, STAT3 AlphaScreen: 111.8 % of control
STAT3 Cys468A; [1] 3 μM
  % of control, STAT3 AlphaScreen: 108.3 % of control
STAT3 Cys468A; [1] 10 μM
  % of control, STAT3 AlphaScreen: 101.1 % of control
STAT3 Cys468A; [1] 30 μM
  % of control, STAT3 AlphaScreen: 79.7 % of control
STAT3 Cys468A; mutated Cys468A
  IC50: > 30 µM
STAT3 Cys542A; [1] 1 μM
  % of control, STAT3 AlphaScreen: 102.5 % of control
STAT3 Cys542A; [1] 3 μM
  % of control, STAT3 AlphaScreen: 101.3 % of control
STAT3 Cys542A; [1] 10 μM
  % of control, STAT3 AlphaScreen: 98.1 % of control
STAT3 Cys542A; [1] 30 μM
  % of control, STAT3 AlphaScreen: 92.3 % of control
STAT3 Cys542A; mutated Cys542A
  IC50: > 30 µM
STAT3 Cys550A; [1] 1 μM
  % of control, STAT3 AlphaScreen: 132.9 % of control
STAT3 Cys550A; [1] 3 μM
  % of control, STAT3 AlphaScreen: 136.0 % of control
STAT3 Cys550A; [1] 10 μM
  % of control, STAT3 AlphaScreen: 135.2 % of control
STAT3 Cys550A; [1] 30 μM
  % of control, STAT3 AlphaScreen: 124.7 % of control
STAT3 Cys550A; mutated Cys550A
  IC50: > 30 µM
STAT3 Cys687A; [1] 1 μM
  % of control, STAT3 AlphaScreen: 93.3 % of control
STAT3 Cys687A; [1] 3 μM
  % of control, STAT3 AlphaScreen: 89.7 % of control
STAT3 Cys687A; [1] 10 μM
  % of control, STAT3 AlphaScreen: 78.3 % of control
STAT3 Cys687A; [1] 30 μM
  % of control, STAT3 AlphaScreen: 51.9 % of control
STAT3 Cys687A; mutated Cys687A
  IC50: > 30 µM
STAT3 Cys712A; [1] 1 μM
  % of control, STAT3 AlphaScreen: 113.4 % of control
STAT3 Cys712A; [1] 3 μM
  % of control, STAT3 AlphaScreen: 112.4 % of control
STAT3 Cys712A; [1] 10 μM
  % of control, STAT3 AlphaScreen: 110.5 % of control
STAT3 Cys712A; [1] 30 μM
  % of control, STAT3 AlphaScreen: 108.0 % of control
STAT3 Cys712A; mutated Cys712A
  IC50: > 30 µM
other
  melting point: 148 °C
[1]
  pKa: 6.88 ± 0.03
